Assay results reported in ChEMBL document CHEMBL1201862, “PubChem BioAssay data set” (2004).
The source made the active and inactive calls.

How the values were obtained:
[1] = biological target: Peroxisome proliferator-activated receptor gamma/Nuclear receptor coactivator 1 (Homo sapiens, UniProt P37231); assay: (§1) TR-FRET dose response biochemical High Throughput Screening assay for agonists of the steroid receptor coactivator 1 (SRC-1) recruitment by the peroxisome proliferator-activated receptor gamma (PPAR gamma): non-selective agonists. [Related pubchem assays (depositor defined):AID1300, AID1808, AID504735, AID631]; assay type: protein assay
[2] = biological target: Peroxisome proliferator-activated receptor gamma/Nuclear receptor coactivator 3 (Homo sapiens, UniProt P37231); assay: as §1, with “3 (SRC-3)” for “1 (SRC-1)”, “assays: 1301 (Confirmation screen.), 1048 (Primary screen.)]” for “assays (depositor defined):AID1300, AID1808, AID504735, AID631]”; assay type: functional
[3] = biological target: Peroxisome proliferator-activated receptor gamma/Nuclear receptor coactivator 2 (Homo sapiens, UniProt P37231); assay: TR-FRET dose response biochemical High Throughput Screening assay for agonists of the steroid receptor coactivator 2 (SRC-2) recruitment by the peroxisome proliferator-activated receptor gamma (PPAR gamma): non-selective agonists. [Related pubchem assays: 1297, 1032 ]; assay type: functional
[4] = biological target: T1, Cytochrome P450 2C9 (Homo sapiens, UniProt P11712)
[5] = biological target: T2, Cytochrome P450 1A2 (Homo sapiens, UniProt P05177);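 note: PubChem cytochrome P450 panel assay, CYP1A2 panel member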
T2 sequence (P05177 whole entry): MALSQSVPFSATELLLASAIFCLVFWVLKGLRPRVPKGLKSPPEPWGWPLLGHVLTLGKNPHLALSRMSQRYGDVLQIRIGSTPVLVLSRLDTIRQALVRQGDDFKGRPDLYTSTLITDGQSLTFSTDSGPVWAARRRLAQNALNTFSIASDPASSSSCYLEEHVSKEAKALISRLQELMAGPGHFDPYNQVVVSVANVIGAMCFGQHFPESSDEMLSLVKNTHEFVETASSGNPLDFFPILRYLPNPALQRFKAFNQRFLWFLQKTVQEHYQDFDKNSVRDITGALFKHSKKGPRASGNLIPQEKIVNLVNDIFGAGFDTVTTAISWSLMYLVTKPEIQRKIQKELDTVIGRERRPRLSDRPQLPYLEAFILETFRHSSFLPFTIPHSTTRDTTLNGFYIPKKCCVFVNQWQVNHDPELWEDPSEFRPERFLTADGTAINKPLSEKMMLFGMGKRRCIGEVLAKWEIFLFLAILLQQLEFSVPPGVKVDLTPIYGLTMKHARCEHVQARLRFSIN

[6] = biological target: T3, Sentrin-specific protease 7 (Homo sapiens, UniProt Q9BQF6); assay type: functional;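 note: Luminescence-based dose-response confirmation of ultra-high-throughput screening hits, measuring inhibition of SENP7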
T3 sequence (Q9BQF6 whole entry): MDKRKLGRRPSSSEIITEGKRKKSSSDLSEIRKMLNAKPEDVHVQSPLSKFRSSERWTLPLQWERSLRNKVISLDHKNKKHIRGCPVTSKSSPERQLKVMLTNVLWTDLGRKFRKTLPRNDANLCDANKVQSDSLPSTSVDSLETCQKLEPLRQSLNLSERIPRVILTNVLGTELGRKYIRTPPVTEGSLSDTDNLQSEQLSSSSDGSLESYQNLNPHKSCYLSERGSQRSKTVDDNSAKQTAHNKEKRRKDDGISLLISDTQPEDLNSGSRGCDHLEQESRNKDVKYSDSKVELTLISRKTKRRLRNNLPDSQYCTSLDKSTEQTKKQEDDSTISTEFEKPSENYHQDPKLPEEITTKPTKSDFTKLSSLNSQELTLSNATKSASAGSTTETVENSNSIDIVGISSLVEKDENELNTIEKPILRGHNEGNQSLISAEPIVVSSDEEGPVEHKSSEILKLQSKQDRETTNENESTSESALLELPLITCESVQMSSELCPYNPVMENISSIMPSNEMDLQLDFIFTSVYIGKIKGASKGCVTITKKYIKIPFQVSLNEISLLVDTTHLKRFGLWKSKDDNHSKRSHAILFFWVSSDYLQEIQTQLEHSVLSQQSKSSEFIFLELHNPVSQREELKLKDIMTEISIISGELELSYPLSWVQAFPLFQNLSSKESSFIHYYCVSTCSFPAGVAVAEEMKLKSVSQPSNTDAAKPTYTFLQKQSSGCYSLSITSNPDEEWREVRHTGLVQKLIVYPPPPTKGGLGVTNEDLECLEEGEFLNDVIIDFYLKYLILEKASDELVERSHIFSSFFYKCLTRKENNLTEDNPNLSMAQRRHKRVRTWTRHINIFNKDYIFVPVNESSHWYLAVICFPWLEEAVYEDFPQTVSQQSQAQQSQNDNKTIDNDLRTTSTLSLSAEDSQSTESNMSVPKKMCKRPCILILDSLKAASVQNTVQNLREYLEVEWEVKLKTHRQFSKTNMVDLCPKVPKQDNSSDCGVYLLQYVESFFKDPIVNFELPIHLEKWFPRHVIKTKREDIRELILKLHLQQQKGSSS

[7] = biological target: T4, Sentrin-specific protease 6 (Homo sapiens, UniProt Q9GZR1); assay type: functional;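 note: Luminescence-based dose-response confirmatory assay of SENP6 inhibition, following up an ultra-high-throughput screen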
T4 sequence (Q9GZR1 whole entry): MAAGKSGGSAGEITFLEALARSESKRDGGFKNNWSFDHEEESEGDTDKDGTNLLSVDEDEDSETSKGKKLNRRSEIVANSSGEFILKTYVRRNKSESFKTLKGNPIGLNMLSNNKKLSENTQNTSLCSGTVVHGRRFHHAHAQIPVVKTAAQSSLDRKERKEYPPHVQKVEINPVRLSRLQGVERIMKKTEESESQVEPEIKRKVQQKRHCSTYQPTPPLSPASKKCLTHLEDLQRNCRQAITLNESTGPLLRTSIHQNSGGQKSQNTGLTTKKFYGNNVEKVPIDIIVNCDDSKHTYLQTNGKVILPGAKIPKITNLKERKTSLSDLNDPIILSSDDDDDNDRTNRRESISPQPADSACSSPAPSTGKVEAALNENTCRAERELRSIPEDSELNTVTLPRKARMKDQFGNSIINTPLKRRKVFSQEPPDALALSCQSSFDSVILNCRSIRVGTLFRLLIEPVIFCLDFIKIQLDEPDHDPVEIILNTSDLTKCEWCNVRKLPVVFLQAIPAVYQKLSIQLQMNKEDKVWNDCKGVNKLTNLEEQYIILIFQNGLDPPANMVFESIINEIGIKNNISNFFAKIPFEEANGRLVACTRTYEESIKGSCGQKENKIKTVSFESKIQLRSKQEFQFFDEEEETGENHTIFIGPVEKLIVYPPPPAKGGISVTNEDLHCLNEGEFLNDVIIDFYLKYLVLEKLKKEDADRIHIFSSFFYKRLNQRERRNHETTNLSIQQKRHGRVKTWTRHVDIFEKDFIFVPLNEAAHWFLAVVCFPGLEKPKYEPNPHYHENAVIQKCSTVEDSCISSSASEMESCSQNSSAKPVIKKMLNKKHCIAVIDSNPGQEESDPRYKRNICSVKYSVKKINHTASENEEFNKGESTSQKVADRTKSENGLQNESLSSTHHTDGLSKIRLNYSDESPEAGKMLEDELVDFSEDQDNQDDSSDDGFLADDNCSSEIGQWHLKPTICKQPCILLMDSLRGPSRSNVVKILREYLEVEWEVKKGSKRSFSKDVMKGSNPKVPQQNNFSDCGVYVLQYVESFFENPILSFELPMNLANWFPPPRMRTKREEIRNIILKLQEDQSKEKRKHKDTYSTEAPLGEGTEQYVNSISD

[8] = biological target: T5, Caspase-3 (Homo sapiens, UniProt P42574); assay type: functional;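 note: Dose-response selectivity test against caspase-3 for candidate inhibitors of sentrin-specific proteases (SENPs)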
T5 sequence (P42574 whole entry): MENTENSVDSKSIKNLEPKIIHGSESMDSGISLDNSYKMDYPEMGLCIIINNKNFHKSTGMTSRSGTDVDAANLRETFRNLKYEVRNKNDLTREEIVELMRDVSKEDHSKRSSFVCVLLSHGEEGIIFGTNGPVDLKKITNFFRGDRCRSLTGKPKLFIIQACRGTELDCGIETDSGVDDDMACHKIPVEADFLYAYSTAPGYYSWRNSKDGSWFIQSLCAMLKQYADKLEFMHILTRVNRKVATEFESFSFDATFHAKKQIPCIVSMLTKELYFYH

[9] = biological target: T6, Sentrin-specific protease 8 (Homo sapiens, UniProt Q96LD8); assay type: functional;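 note: luminescence read-out of SENP8 inhibition, dose-response confirmation following an ultra-high-throughput screen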
T6 sequence (Q96LD8 whole entry): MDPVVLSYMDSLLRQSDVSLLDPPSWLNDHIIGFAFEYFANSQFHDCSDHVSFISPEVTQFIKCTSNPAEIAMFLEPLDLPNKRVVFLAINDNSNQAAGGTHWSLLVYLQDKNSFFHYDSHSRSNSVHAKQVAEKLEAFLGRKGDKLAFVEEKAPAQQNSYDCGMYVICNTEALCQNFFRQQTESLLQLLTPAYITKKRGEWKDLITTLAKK

[10] = biological target: Cytochrome P450 3A4 (Homo sapiens, UniProt P08684);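 note: CYP3A4 tested as one member of a cytochrome P450 panel screen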
[11] = biological target: T1, Cytochrome P450 2C9; remark: listed apart in the source
[12] = biological target: Cytochrome P450 2C19 (Homo sapiens, UniProt P33261); assay: Cytochrome panel assay with activity outcomes. Panel member name: p450-cyp2c19 Compounds with AC50 equal or less than 10 uM are considered active; assay type: functional; details: read-out: AC50
[13] = tested on: HEK293; assay: inhibitors of LMP1-driven NF-kB reporter, dose response, cell-based, HEK293, luciferase, cherry-pick (AID 588343); assay type: functional; details: Homo sapiens
[14] = C. albicans growth with fluconazole, confirmation, fluorescence, retest (AID 2467); assay type: functional, cell-based
[15] = NIH-3T3 fibroblast cytotoxicity, dose response, cytotoxicity control, cell-based, fluorescence, Alamar Blue, secondary assay (AID 2327); assay type: functional;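 note: NIH-3T3 mouse fibroblasts cultured with fluconazole at 8 µg/mL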
[16] = HepG2 cell cytotoxicity, dose response, cytotoxicity control for Shn3 inhibitor project, CellTiter-Glo, cherry-picked (AID 624134); assay type: functional, cell-based
[17] = control 3'UTR Renilla luciferase suppression, dose response, counter-screen for Shn3 inhibitor project, cell-based, Clone20-Shn3RL, cherry-picked (AID 624133); assay type: functional
[18] = Shn3 3'UTR reporter inhibitors, dose response, cell-based, Clone20 osteoblasts, firefly luciferase, cherry-picked (AID 624132); assay type: functional;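 note: firefly luciferase luminescence from reporter carrying the Shn3 3'UTR in osteoblasts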
[19] = biological target: T7, Streptokinase A (Streptococcus pyogenes serotype M1, UniProt P10520); assay: S. pyogenes streptokinase expression inhibitors, potency, dose response, plasminogen activation absorbance, OD405 (AID 1914); assay type: functional, Streptococcus pyogenes M1 GAS;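 note: secreted streptokinase activity via plasminogen activation per viability signal from cell pellet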
T7 sequence (P10520 whole entry): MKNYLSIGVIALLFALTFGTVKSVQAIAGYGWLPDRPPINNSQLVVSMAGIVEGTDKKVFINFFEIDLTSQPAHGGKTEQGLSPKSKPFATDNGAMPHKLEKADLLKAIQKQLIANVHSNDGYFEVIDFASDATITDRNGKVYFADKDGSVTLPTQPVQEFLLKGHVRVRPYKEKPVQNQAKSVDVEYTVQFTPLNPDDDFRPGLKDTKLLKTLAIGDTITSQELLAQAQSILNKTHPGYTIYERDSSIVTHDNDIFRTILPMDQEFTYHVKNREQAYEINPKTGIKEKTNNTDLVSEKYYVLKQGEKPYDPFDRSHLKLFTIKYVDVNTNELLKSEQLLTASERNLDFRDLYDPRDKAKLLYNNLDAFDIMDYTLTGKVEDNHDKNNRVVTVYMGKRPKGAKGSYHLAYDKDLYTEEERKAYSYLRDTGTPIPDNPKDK

[20] = biological target: Cytochrome P450 2D6 (Homo sapiens, UniProt P10635);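 note: CYP2D6 member of a cytochrome P450 panel assay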
[21] = tested on: Streptococcus sp. 'group A'; assay: growth inhibition of control SK(-) GAS strain, dose response, counter-screen for streptokinase expression inhibitor project, luminescence, kanamycin, BacTiterGlo, confirmation (AID 1900); assay type: functional, organism-based
[22] = tested on: Streptococcus; assay: Group A Streptococcus viability loss, dose response, counter-screen for streptokinase expression inhibitor project, luminescence, BacTiterGlo (AID 1915); assay type: functional, organism-based;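 note: potency for reduction of bacterial viability or growth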

Cytochrome P450 3A4, sequence (P08684 whole entry): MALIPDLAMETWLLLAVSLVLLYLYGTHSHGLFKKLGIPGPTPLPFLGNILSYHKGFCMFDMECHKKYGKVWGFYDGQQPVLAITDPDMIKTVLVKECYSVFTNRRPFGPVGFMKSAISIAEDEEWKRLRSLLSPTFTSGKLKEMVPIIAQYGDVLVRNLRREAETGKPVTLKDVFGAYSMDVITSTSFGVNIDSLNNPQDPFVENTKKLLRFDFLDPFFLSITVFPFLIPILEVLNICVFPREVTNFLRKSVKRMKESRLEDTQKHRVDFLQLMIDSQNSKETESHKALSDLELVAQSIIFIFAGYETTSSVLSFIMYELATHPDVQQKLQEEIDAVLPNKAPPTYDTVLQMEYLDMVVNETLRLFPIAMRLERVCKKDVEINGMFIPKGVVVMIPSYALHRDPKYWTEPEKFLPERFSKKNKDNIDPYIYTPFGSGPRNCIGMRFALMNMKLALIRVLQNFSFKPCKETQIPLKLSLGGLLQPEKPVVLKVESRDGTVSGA
T1 sequence (P11712 whole entry): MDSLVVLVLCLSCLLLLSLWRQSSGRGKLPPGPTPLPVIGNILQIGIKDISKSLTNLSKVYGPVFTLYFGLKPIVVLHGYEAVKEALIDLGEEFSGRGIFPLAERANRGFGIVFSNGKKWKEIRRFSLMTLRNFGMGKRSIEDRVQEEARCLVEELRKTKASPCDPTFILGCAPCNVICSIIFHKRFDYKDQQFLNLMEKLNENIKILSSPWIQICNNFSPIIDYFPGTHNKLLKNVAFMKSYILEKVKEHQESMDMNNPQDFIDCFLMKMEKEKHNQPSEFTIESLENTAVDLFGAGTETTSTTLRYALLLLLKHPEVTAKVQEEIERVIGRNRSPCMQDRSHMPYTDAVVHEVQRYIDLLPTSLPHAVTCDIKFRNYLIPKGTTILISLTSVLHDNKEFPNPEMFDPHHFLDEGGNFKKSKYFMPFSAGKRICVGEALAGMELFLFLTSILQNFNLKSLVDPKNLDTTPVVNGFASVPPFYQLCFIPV
Cytochrome P450 2C19, sequence (P33261 whole entry): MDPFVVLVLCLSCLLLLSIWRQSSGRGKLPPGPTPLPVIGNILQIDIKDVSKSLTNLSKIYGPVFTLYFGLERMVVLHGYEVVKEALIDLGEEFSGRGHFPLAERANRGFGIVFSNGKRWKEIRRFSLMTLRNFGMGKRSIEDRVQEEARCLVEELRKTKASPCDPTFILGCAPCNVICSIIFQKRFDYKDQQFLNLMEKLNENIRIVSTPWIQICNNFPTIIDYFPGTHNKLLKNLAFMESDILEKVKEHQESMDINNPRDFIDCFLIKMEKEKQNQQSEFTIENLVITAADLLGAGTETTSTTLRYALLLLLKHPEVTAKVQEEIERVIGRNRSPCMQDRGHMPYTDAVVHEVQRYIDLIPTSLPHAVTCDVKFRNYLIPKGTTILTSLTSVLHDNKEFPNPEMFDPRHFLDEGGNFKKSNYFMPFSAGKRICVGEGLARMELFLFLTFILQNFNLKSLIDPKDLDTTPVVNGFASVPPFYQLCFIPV
Peroxisome proliferator-activated receptor gamma/Nuclear receptor coactivator 1, sequence (P37231 whole entry): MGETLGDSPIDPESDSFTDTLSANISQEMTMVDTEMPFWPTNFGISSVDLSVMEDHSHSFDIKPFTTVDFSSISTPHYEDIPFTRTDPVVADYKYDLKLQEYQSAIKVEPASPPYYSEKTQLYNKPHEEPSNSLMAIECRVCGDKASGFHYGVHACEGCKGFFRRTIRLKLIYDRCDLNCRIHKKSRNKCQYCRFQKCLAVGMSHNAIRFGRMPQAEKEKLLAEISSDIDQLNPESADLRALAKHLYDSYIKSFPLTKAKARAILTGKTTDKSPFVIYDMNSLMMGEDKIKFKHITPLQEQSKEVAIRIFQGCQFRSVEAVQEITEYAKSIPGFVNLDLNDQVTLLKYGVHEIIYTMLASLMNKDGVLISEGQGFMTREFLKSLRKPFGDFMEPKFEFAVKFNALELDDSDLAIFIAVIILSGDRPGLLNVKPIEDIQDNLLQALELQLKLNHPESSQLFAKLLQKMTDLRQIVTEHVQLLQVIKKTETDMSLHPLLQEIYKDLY
Peroxisome proliferator-activated receptor gamma/Nuclear receptor coactivator 1, sequence (Q15788 whole entry, further chain): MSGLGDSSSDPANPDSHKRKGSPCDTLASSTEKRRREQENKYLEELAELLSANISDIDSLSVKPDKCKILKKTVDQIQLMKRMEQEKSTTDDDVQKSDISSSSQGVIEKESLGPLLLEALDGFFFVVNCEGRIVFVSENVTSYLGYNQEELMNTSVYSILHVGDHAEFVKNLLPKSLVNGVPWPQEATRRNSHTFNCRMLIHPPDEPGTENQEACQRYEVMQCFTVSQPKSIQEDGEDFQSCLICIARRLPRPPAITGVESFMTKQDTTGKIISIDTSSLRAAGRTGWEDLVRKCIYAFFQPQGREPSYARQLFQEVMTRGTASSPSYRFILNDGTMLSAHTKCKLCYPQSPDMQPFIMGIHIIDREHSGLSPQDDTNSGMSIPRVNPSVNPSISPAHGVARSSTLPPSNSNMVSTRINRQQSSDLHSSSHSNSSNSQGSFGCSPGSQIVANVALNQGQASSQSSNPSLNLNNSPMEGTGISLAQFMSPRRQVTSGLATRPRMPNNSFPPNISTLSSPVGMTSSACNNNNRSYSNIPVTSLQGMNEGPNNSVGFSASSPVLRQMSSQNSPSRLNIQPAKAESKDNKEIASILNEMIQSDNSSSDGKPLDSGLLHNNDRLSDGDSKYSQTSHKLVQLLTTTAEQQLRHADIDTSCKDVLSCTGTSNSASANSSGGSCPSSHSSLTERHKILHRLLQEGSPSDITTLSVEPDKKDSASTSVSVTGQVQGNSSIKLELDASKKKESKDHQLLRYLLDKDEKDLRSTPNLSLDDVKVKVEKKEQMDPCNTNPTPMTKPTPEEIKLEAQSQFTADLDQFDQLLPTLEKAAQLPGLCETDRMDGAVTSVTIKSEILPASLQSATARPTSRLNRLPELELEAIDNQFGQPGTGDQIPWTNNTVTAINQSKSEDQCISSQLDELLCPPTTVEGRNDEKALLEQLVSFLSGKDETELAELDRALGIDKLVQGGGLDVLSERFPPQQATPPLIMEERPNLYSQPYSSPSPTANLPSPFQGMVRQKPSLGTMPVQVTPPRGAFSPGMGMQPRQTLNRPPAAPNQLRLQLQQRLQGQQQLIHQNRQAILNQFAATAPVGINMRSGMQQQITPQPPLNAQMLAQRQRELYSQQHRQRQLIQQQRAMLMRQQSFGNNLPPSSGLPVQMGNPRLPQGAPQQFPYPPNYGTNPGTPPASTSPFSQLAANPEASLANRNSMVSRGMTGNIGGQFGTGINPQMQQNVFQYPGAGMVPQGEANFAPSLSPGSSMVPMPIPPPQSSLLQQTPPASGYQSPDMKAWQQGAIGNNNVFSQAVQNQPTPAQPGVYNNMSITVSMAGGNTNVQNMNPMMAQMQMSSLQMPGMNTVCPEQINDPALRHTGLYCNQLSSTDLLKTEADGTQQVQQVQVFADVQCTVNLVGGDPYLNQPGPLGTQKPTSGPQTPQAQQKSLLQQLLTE
Cytochrome P450 2D6, sequence (P10635 whole entry): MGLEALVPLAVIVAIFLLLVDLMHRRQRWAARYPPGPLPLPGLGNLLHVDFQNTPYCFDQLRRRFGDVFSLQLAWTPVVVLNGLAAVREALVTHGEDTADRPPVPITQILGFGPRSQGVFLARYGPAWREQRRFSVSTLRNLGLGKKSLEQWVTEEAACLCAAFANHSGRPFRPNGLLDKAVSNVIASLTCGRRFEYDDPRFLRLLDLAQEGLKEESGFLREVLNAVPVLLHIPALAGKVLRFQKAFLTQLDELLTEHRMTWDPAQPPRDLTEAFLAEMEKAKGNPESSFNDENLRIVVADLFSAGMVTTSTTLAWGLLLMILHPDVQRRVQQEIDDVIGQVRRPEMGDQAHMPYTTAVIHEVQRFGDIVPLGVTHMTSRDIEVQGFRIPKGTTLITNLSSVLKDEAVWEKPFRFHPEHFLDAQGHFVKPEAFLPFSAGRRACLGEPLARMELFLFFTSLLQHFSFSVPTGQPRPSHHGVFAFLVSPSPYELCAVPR

CN(CCCNC(=O)CSc1cc(=O)n(C)c2cc(Cl)ccc12)Cc1ccccc1
EC50 [1]: > 79.4 µM (inactive) | EC50 [2]: > 79.4 µM (not active) | EC50 [3]: > 79.4 µM (not active)

O=C(NCc1ccc(Cl)cc1)c1ccc(Cl)cc1[N+](=O)[O-]
AC50 [4]: inconclusive | AC50 [5]: 2.82 µM (inconclusive)

CCN(CCCNC(=O)CC(C(=O)N1CCc2ccccc21)n1ccnc1)c1ccccc1 (centres undefined)
AC50 [4]: inconclusive

CSc1cnn(-c2ccccc2)c(=O)c1SC
EC50 [1]: 1.97 µM (active) | EC50 [2]: > 79.4 µM (not active) | EC50 [3]: 1.75 µM (active)

Cc1c(C(=O)O)cccc1-c1ccc(/C=C2/NC(=O)N(c3ccccc3)C2=O)o1
IC50 [6]: 21.2 µM (active) | IC50 [7]: 28.6 µM (active) | IC50 [8]: > 100 µM (inactive) | IC50 [9]: 45 µM (active)

O=C(c1cccc(F)c1)N1CCC2(CC1)CCN(C(c1ccccc1)c1ccccc1)CC2
AC50 [10]: inconclusive | AC50 [5]: 10 µM (inconclusive) | AC50 [11]: 39.8 µM (inconclusive)

COc1ccc(N2CCN(CCNC(=O)C3CCN(S(=O)(=O)c4cccs4)CC3)CC2)cc1
AC50 [10]: inconclusive | AC50 [11]: 20 µM (inconclusive) | AC50 [12]: 28.2 µM (inconclusive)

O=C(O)c1ccc(-c2ccc(OS(=O)(=O)c3ccccc3F)cc2)cc1
IC50 [6]: 6.6 µM (active) | IC50 [7]: 35 µM (active) | IC50 [8]: > 100 µM (inactive) | IC50 [9]: 56.4 µM (active)

O=c1c(-c2ccccc2)nc2cnc(Oc3ccccc3)nc2n1C1CC1
AC50 [10]: inconclusive | AC50 [12]: 25.1 µM (inconclusive)

N=C(NOC(=O)c1cccc(Br)c1)c1ccccn1
AC50 [13]: 21.8 µM (active)

Cn1c(=O)n(CC#N)c2ccccc21
AC50 [4]: inconclusive | AC50 [5]: 12.6 µM (inconclusive) | EC50 [14]: 4.1 µM (active) | EC50 [15]: > 160 µM (inconclusive)

CCCCC(=O)NC(c1ccc(OC)c(OC)c1)c1ccc2cccnc2c1O (centres undefined)
AC50 [16]: 60.1 µM (active) | AC50 [17]: 1.4 µM (active) | AC50 [18]: 1.36 µM (active) | AC50 [13]: 7.93 µM (active)

Cc1nn(-c2ccccc2)c(C)c1/C=N/NC(=O)c1cc(-c2ccc(Cl)s2)[nH]n1
AC50 [10]: inconclusive | EC50 [19]: > 150 µM (not active) | AC50 [20]: 25.1 µM (inconclusive) | EC50 [21]: 10.8 µM (active) | EC50 [22]: 9.32 µM (active)
